Measured values as given in the CheMixHub ionic liquid set.

Assay: xn = mol fraction of the nth substance listed
Settings: 101 kPa

N#C[C-](C#N)C#N.OCCC[n+]1ccccc1 + c1ccsc1
viscosity [mPa·s]
Settings | x1 = 0.4088 | x1 = 0.505 | x1 = 0.5955 | x1 = 0.7045 | x1 = 0.8231 | x1 = 0.9377 | x1 = 1
293.15 K | 17.5 | 31.5 | 48.6 | 69.3 | 94.1 | 115 | 126
298.15 K | 14.4 | 25.1 | 36.6 | 52 | 68.9 | 85.4 | 92.5
303.15 K | 12 | 20.4 | 29.3 | 40 | 52.7 | 64.4 | 69.5
308.15 K | 10.2 | 16.9 | 24.1 | 32.4 | 42.1 | 49.9 | 53.8
313.15 K | 8.69 | 14.3 | 19.8 | 26.4 | 33.5 | 39.5 | 42.5
318.15 K | 7.53 | 12.2 | 16.9 | 22.1 | 27.4 | 32.2 | 34.6
323.15 K | 6.58 | 10.5 | 14.2 | 18.3 | 22.4 | 26.2 | 28.1
328.15 K | 5.8 | 9.03 | 12 | 15.4 | 18.8 | 21.8 | 23.4
333.15 K | 5.15 | 7.96 | 10.5 | 13.3 | 16.1 | 18.5 | 19.8
338.15 K | 4.62 | 7.12 | 9.24 | 11.5 | 13.8 | 15.9 | 16.9
343.15 K | 4.16 | 6.33 | 8.11 | 10 | 11.9 | 13.6 | 14.5
348.15 K | 3.96 | 5.89 | 7.4 | 9.06 | 10.7 | 12.3 | 13.1
